One block for each compound: values may come before it.
What was measured:
[1] = Biodistribution of radiotracers in normal mice; type: in vivo, mouse; details: normal male mice
Procedure: Normal CD-1 male mice were injected via the tail vein with 35 μCi of [^68Ga] radiotracers (0.2 nmole of ligand). […] All organs were removed and blood was also collected. Each organ was weighed, and the tissue radioactivity was measured with an automated gamma counter (Wizard, Perkin Elmer). The % ID/g was calculated by comparison with samples of a standard dilution of the initial dose. All measurements were corrected for decay.

[2] = system: PSMA-expressing LNCaP cells; test: Cell binding and internalization; type: cell-based, human; details: 37° C.
Procedure: The cellular uptake and internalization kinetics of the [^68Ga]1a, [^68Ga]5a and [^68Ga]5b were determined using PSMA-expressing LNCaP cells. Furthermore, to be able to discriminate between total cellular activity (sum of membrane-associated and internalized activity) and internalized activity, all incubations were followed by a washing step with mild acid at 4° C. to remove specifically cell-surface bound radioligand by displacement.
LNCaP cells (in 6-well plates in triplicates) were incubated in RPMI-1640 medium with [^68Ga]1a, [^68Ga]5a or [^68Ga]5b for 0-2 h at 37° C. At the indicated time, the medium was removed and the cells were washed twice and then incubated with a mild acid buffer (50 mM glycine, 150 mM NaCl, pH 3.0) at 4° C. for 5 min. The supernatant (containing cell surface-bound radioactivity) was pooled and the cell pellet (containing internalized radioactivity) was collected with filter paper and then radioactivity in supernatant and cell pellet was counted on a gamma counter.
LNCaP cells were incubated with [^68Ga]1a, [^68Ga]5a and [^68Ga]5b for up to 2 h at 37° C. to determine whether the compound is internalized by endocytosis. The cells were then washed with a mild acid buffer to remove extracellularly bound compound.
Non specific binding (NSB) was evaluated by blocking with 20 μM PMPA. Specificity of cell uptake (SB) was calculated by subtracting the respective signals resulting from PMPA blocking. Values are expressed as % of applied radioactivity bound to 10^6 cells.

[3] = system: LNCaP (left shoulder) and PC-3 (right shoulder) tumor bearing nude mouse; test: Small animal PET imaging with [68Ga]1a and [68Ga]4a; type: in vivo; details: 60 to 75 min after i.v. injection
Procedure: Male athymic mice (CD-1 nude, 5-6 weeks old) were obtained from Charles River, and were allowed to acclimatize at the vivarium for 1 week prior to implanting tumors. Mice were provided with food and water ad libitum. LNCaP tumors were induced on the left shoulder by sub-cutaneous (s.c.) injection of 5.0×10^6 cells in a 200 μL cell suspension of a 1:1 v/v mixture of media with reconstituted basement membrane (BD Matrigel™, Collaborative Biomedical Products Inc., Bedford, Mass.). Similarly, PC-3 tumors were induced on the right shoulder by s.c. injection of 2.0×10^6 cells. Palpable LNCaP tumors developed after a period of 4-5 weeks.
Dynamic small animal PET (APET) imaging studies of LNCaP (left shoulder) and PC-3 (right shoulder) tumor bearing nude mouse were performed with [^68Ga]1a and [^68Ga]4a. PET imaging studies were performed on a Phillips Mosaic small animal PET scanner, which has an imaging field of view of 11.5 cm. Under isoflurane anesthesia (1-2%, 1 L/min oxygen), the tumor-bearing nude mouse was injected with 0.5 mCi activity by an intravenous injection into the lateral tail vein. Data acquisition began at 30 min after the injection. Dynamic scans were conducted over a period of 1 h (5 min/frame; image voxel size 0.5 mm^3). Mouse was visually monitored for breathing, and a heating pad was used to maintain body temperature throughout the entire procedure. Images were reconstructed and a region of interest (ROI) analysis was performed using AMIDE software (http://amide.sourceforge.net/).
Representative animal PET images of LNCaP xenograft mice between 60 to 75 min after i.v. injection of [^68Ga]1a, and [^68Ga]4a are shown in FIGS. 3A-3F. […] FIGS. 3A-3F show sagittal, transaxial and coronal sections of APET images of nude mouse with LNCaP tumor at left shoulder and PC-3 tumor at right shoulder between 60 to 75 min post i.v. injection of [^68Ga]1a (FIGS. 3A-3C) and [^68Ga]4a (FIG. 3D-3F).

[4] = system: LNCaP tumor bearing nude mice; test: Biodistribution of [68Ga]labeled ligand in PSMA positive tumor bearing nude mice; type: in vivo, mouse; details: 1 h post-injection, i.v., n = 3
Procedure: In a dish contained 5×10^6 cells of LNCaP in 50% Matrigel (Becton Dickinson, Heidelberg, Germany) were subcutaneously inoculated into the left shoulder of male 5- to 6-week-old CD-1 nu/nu mice (Charles River Laboratories). The tumors were allowed to grow for 8 weeks until approximately 0.5 cm^3 in size.
The ^68Ga-radiolabeled compounds were injected via tail vein (25 μCi per mouse; 0.1-0.2 nmol). At 1 h after injection, the animals were sacrificed. Organs of interest were dissected and weighed. The radioactivity was measured with a gamma counter and calculated as % ID/g.

Biodistribution: Blood ([1]; 2 min): 7.75 ± 1.60 % dose/g
Biodistribution: Bone ([1]; 2 min): 1.77 ± 0.16 % dose/g
Biodistribution: Brain ([1]; 2 min): 0.25 ± 0.02 % dose/g
Biodistribution: Heart ([1]; 2 min): 3.32 ± 0.51 % dose/g
Biodistribution: Kidney ([1]; 2 min): 40.5 ± 7.81 % dose/g
Biodistribution: Liver ([1]; 2 min): 11.0 ± 0.99 % dose/g
Biodistribution: Lung ([1]; 2 min): 5.29 ± 0.82 % dose/g
Biodistribution: Muscle ([1]; 2 min): 1.68 ± 0.20 % dose/g
Biodistribution: Pancreas ([1]; 2 min): 1.91 ± 0.17 % dose/g
Biodistribution: Skin ([1]; 2 min): 2.42 ± 0.38 % dose/g
Biodistribution: Spleen ([1]; 2 min): 7.46 ± 0.84 % dose/g
Biodistribution: Blood ([1]; 30 min): 0.54 ± 0.08 % dose/g
Biodistribution: Bone ([1]; 30 min): 0.24 ± 0.08 % dose/g
Biodistribution: Brain ([1]; 30 min): 0.03 ± 0.00 % dose/g
Biodistribution: Heart ([1]; 30 min): 0.27 ± 0.09 % dose/g
Biodistribution: Kidney ([1]; 30 min): 108 ± 23.7 % dose/g
Biodistribution: Liver ([1]; 30 min): 0.35 ± 0.03 % dose/g
Biodistribution: Lung ([1]; 30 min): 1.14 ± 0.17 % dose/g
Biodistribution: Muscle ([1]; 30 min): 0.32 ± 0.01 % dose/g
Biodistribution: Pancreas ([1]; 30 min): 0.76 ± 0.11 % dose/g
Biodistribution: Skin ([1]; 30 min): 0.95 ± 0.20 % dose/g
Biodistribution: Spleen ([1]; 30 min): 2.95 ± 0.36 % dose/g
Biodistribution: Blood ([1]; 60 min): 0.33 ± 0.07 % dose/g
Biodistribution: Bone ([1]; 60 min): 0.23 ± 0.02 % dose/g
Biodistribution: Brain ([1]; 60 min): 0.02 ± 0.00 % dose/g
Biodistribution: Heart ([1]; 60 min): 0.34 ± 0.07 % dose/g
Biodistribution: Kidney ([1]; 60 min): 91.1 ± 11.6 % dose/g
Biodistribution: Liver ([1]; 60 min): 6.09 ± 0.86 % dose/g
Biodistribution: Lung ([1]; 60 min): 0.93 ± 0.14 % dose/g
Biodistribution: Muscle ([1]; 60 min): 0.19 ± 0.02 % dose/g
Biodistribution: Pancreas ([1]; 60 min): 0.59 ± 0.10 % dose/g
Biodistribution: Skin ([1]; 60 min): 0.44 ± 0.05 % dose/g
Biodistribution: Spleen ([1]; 60 min): 4.39 ± 0.42 % dose/g
Biodistribution: Blood ([1]; 120 min): 0.12 ± 0.03 % dose/g
Biodistribution: Bone ([1]; 120 min): 0.21 ± 0.05 % dose/g
Biodistribution: Brain ([1]; 120 min): 0.01 ± 0.00 % dose/g
Biodistribution: Heart ([1]; 120 min): 0.23 ± 0.19 % dose/g
Biodistribution: Kidney ([1]; 120 min): 83.9 ± 13.6 % dose/g
Biodistribution: Liver ([1]; 120 min): 2.56 ± 0.80 % dose/g
Biodistribution: Lung ([1]; 120 min): 0.77 ± 0.17 % dose/g
Biodistribution: Muscle ([1]; 120 min): 0.12 ± 0.03 % dose/g
Biodistribution: Pancreas ([1]; 120 min): 0.64 ± 0.23 % dose/g
Biodistribution: Skin ([1]; 120 min): 0.31 ± 0.12 % dose/g
Biodistribution: Spleen ([1]; 120 min): 5.07 ± 2.68 % dose/g
LNCaP tumor visualization in PET images, in words [3]: clearly visualized
PC-3 (PSMA negative) tumor uptake in PET images, in words [3]: did not show any uptakes
Organ distribution: Blood [4]: 0.37 ± 0.07 % dose/g
Organ distribution: Bone [4]: 0.21 ± 0.05 % dose/g
Organ distribution: Brain [4]: 0.04 ± 0.01 % dose/g
Organ distribution: Heart [4]: 0.59 ± 0.14 % dose/g
Organ distribution: Kidney [4]: 176 ± 5.66 % dose/g
Organ distribution: LNCaP tumor [4]: 10.07 ± 3.32 % dose/g
Organ distribution: Liver [4]: 0.62 ± 0.24 % dose/g
Organ distribution: Lung [4]: 2.44 ± 1.03 % dose/g
Organ distribution: Muscle [4]: 0.58 ± 0.24 % dose/g
Organ distribution: Pancreas [4]: 1.38 ± 0.63 % dose/g
Organ distribution: Skin [4]: 1.14 ± 0.58 % dose/g
Organ distribution: Spleen [4]: 18.48 ± 3.02 % dose/g
Structure (SMILES): O=C(O)CCc1ccc2c(c1)C[N+]13CC[N+]45CC(=O)[O][68Ga-3]14([O]C(=O)C3)([O]2)[O]c1ccc(CCC(=O)NCCCCCC(=O)NCCCC[C@H](NC(=O)N[C@@H](CCC(=O)O)C(=O)O)C(=O)O)cc1C5 (some centres unmarked) [[^68Ga]1a, reference compound]
Cell surface binding activity ([2]; 5 min): 3.21 ± 0.74 % ID/10^6 cells
Internalized activity ([2]; 5 min): 0.49 ± 0.21 % ID/10^6 cells
Cell surface binding activity ([2]; 15 min): 3.61 ± 0.47 % ID/10^6 cells
Internalized activity ([2]; 15 min): 2.51 ± 0.19 % ID/10^6 cells
Cell surface binding activity ([2]; 30 min): 2.95 ± 0.36 % ID/10^6 cells
Internalized activity ([2]; 30 min): 4.30 ± 0.72 % ID/10^6 cells
Cell surface binding activity ([2]; 60 min): 3.22 ± 0.81 % ID/10^6 cells
Internalized activity ([2]; 60 min): 7.43 ± 1.27 % ID/10^6 cells
Cell surface binding activity ([2]; 90 min): 3.41 ± 0.17 % ID/10^6 cells
Internalized activity ([2]; 90 min): 8.34 ± 0.16 % ID/10^6 cells
Cell surface binding activity ([2]; 120 min): 3.35 ± 0.04 % ID/10^6 cells
Internalized activity ([2]; 120 min): 8.82 ± 0.45 % ID/10^6 cells

Structure (SMILES): O=C(O)CCc1ccc(O)c(CN(CCN(CC(=O)O)Cc2cc(CCC(=O)NCCCCCC(=O)NCCCC[C@H](NC(=O)N[C@@H](CCC(=O)O)C(=O)O)C(=O)O)ccc2O)CC(=O)O)n1 [[^68Ga]4a, metal not drawn]
Biodistribution: Blood ([1]; 2 min): 8.59 ± 0.82 % dose/g
Biodistribution: Bone ([1]; 2 min): 2.33 ± 0.21 % dose/g
Biodistribution: Brain ([1]; 2 min): 0.27 ± 0.04 % dose/g
Biodistribution: Heart ([1]; 2 min): 3.62 ± 0.34 % dose/g
Biodistribution: Kidney ([1]; 2 min): 60.7 ± 2.89 % dose/g
Biodistribution: Liver ([1]; 2 min): 2.22 ± 0.23 % dose/g
Biodistribution: Lung ([1]; 2 min): 5.45 ± 0.44 % dose/g
Biodistribution: Muscle ([1]; 2 min): 2.68 ± 0.30 % dose/g
Biodistribution: Pancreas ([1]; 2 min): 2.35 ± 0.12 % dose/g
Biodistribution: Skin ([1]; 2 min): 2.84 ± 0.19 % dose/g
Biodistribution: Spleen ([1]; 2 min): 3.64 ± 0.16 % dose/g
Biodistribution: Blood ([1]; 30 min): 0.95 ± 0.33 % dose/g
Biodistribution: Bone ([1]; 30 min): 0.37 ± 0.10 % dose/g
Biodistribution: Brain ([1]; 30 min): 0.04 ± 0.01 % dose/g
Biodistribution: Heart ([1]; 30 min): 0.56 ± 0.21 % dose/g
Biodistribution: Kidney ([1]; 30 min): 148 ± 5.73 % dose/g
Biodistribution: Liver ([1]; 30 min): 0.39 ± 0.12 % dose/g
Biodistribution: Lung ([1]; 30 min): 1.55 ± 0.30 % dose/g
Biodistribution: Muscle ([1]; 30 min): 0.61 ± 0.10 % dose/g
Biodistribution: Pancreas ([1]; 30 min): 0.89 ± 0.12 % dose/g
Biodistribution: Skin ([1]; 30 min): 0.99 ± 0.16 % dose/g
Biodistribution: Spleen ([1]; 30 min): 3.51 ± 1.69 % dose/g
Biodistribution: Blood ([1]; 60 min): 0.30 ± 0.03 % dose/g
Biodistribution: Bone ([1]; 60 min): 0.24 ± 0.02 % dose/g
Biodistribution: Brain ([1]; 60 min): 0.03 ± 0.00 % dose/g
Biodistribution: Heart ([1]; 60 min): 0.31 ± 0.14 % dose/g
Biodistribution: Kidney ([1]; 60 min): 181 ± 26.81 % dose/g
Biodistribution: Liver ([1]; 60 min): 0.23 ± 0.01 % dose/g
Biodistribution: Lung ([1]; 60 min): 1.18 ± 0.14 % dose/g
Biodistribution: Muscle ([1]; 60 min): 0.35 ± 0.07 % dose/g
Biodistribution: Pancreas ([1]; 60 min): 1.09 ± 0.27 % dose/g
Biodistribution: Skin ([1]; 60 min): 0.45 ± 0.07 % dose/g
Biodistribution: Spleen ([1]; 60 min): 2.83 ± 1.49 % dose/g
Biodistribution: Blood ([1]; 120 min): 0.20 ± 0.10 % dose/g
Biodistribution: Bone ([1]; 120 min): 0.23 ± 0.06 % dose/g
Biodistribution: Brain ([1]; 120 min): 0.02 ± 0.00 % dose/g
Biodistribution: Heart ([1]; 120 min): 0.21 ± 0.03 % dose/g
Biodistribution: Kidney ([1]; 120 min): 128 ± 25.0 % dose/g
Biodistribution: Liver ([1]; 120 min): 0.18 ± 0.05 % dose/g
Biodistribution: Lung ([1]; 120 min): 0.83 ± 0.21 % dose/g
Biodistribution: Muscle ([1]; 120 min): 0.20 ± 0.03 % dose/g
Biodistribution: Pancreas ([1]; 120 min): 1.02 ± 0.26 % dose/g
Biodistribution: Skin ([1]; 120 min): 0.30 ± 0.02 % dose/g
Biodistribution: Spleen ([1]; 120 min): 2.83 ± 1.25 % dose/g
LNCaP tumor visualization in PET images, in words [3]: clearly visualized
PC-3 (PSMA negative) tumor uptake in PET images, in words [3]: did not show any uptakes

Reference: patent publication US10688200B2, “Urea-based prostate specific membrane antigen (PSMA) inhibitors for imaging and therapy” (Five Eleven Pharma Inc., priority 2015, dated 2020)
